Values after ≈ are worked out from the molar mass of the structure shown. Where two headings read alike, the source gives them in different places.
What was measured:
Type in all cases: cell-based
Malassezia species = experiment: in vitro micro-dilution susceptibility assay, summary; details: compared to the hydrocortisone negative control
Description: (§1) The in vitro susceptibility of Malassezia species to roflumilast was determined utilizing three Candida species as internal control isolates for all testing. These three isolates were C. albicans American Type Culture Collection (ATCC) 90028, C. krusei (ATCC 6258) and C. parapsilosis (ATCC 22019). In addition to testing roflumilast all susceptibility assays were conducted using ketoconazole and hydrocortisone as positive and negative control compounds, respectively. All assays were placed within a humidified incubator set to 32° C. for a total of seven days. Each assay was evaluated after 12 hours of incubation and, every 24 hours post incubation for a total of seven days. The assays were evaluated for visual growth of each pathogen in the no treatment control as well as determination of minimum inhibition concentration (MIC) values. The concentration that provides a 3-log10 CFU/mL reduction in fungal burden from baseline at day 0 was defined as the minimum fungicidal concentration (MHC) and was determined by quantifying fungal burdens found in the microplate at day seven. […]

Candida species = experiment: as above; details: method of Rojas
Description: as §1

M. furfur (ATCC 14521) = experiment: in vitro micro-dilution susceptibility assay (method of Rojas)
Description: (§2) The in vitro susceptibility of Malassezia species to roflumilast was determined utilizing three Candida species as internal control isolates for all testing. These three isolates were C. albicans American Type Culture Collection (ATCC) 90028, C. krusei (ATCC 6258) and C. parapsilosis (ATCC 22019). In addition to testing roflumilast all susceptibility assays were conducted using ketoconazole and hydrocortisone as positive and negative control compounds, respectively. All assays were placed within a humidified incubator set to 32° C. for a total of seven days. Each assay was evaluated after 12 hours of incubation and, every 24 hours post incubation for a total of seven days. The assays were evaluated for visual growth of each pathogen in the no treatment control as well as determination of minimum inhibition concentration (MIC) values. The concentration that provides a 3-log10 CFU/mL reduction in fungal burden from baseline at day 0 was defined as the minimum fungicidal concentration (MHC) and was determined by quantifying fungal burdens found in the microplate at day seven.
(§3) The method of Rojas (Rojas F D, et al. Antifungal susceptibility of Malassezia furfur, Malassezia sympodialis, and Malassezia globose to azole drugs and amphotericin B evaluated using a broth microdilution method. 2014. Medical Mycology. 52:641-646) was used in which the liquid broth medium was RPMI 1640 with added 1.8% glucose, 1% peptone, 0.5% ox-bile, 0.5% malt extract, 1% glycerol, 0.5% Tween 40 and 0.05% Tween 80. Round bottom 96 well microplates were used. The inoculums were prepared in sterile saline and diluted to a final targeted concentration of 0.5×10^5 to 2.5×10^5 CFU/mL in supplemented RPMI. […] For the internal control isolate C. parapsilosis (ATCC 22019) the expected CLSI values for ketoconazole of 0.03-0.25 (at 24 hours) and 0.06-0.5 (at 48 hours) did agree with the 2-day value (Table A) of 0.5.

[1] = system: C. parapsilosis (ATCC 22019); experiment: as above; details: Lodderomyces parapsilosis, C. parapsilosis (22019), read-out: minimum inhibition concentration (MIC)
Description: as §2, §3

[2] = system: M. globose (ATCC MYA-4889); experiment: as above; details: for MIC: read-out: minimum inhibition concentration (MIC)
Description: as §2, §3

[3] = system: M. restricta (ATCC MYA-4611); experiment: as above; details: for MIC: read-out: minimum inhibition concentration (MIC)
Description: as §2, §3

C. albicans (ATCC 90028) = experiment: as above; details: Candida albicans, read-out: minimum inhibition concentration (MIC)
Description: as §2, §3

M. furfur (ATCC 44344) = experiment: as above; details: for MIC: Malassezia furfur, read-out: minimum inhibition concentration (MIC)
Description: as §2, §3

M. furfur (ATCC 12078) = experiment: as above; details: for MIC: Malassezia furfur, read-out: minimum inhibition concentration (MIC)
Description: as §2, §3

C. krusei (ATCC 6258) = experiment: as above; details: Pichia kudriavzevii, read-out: minimum inhibition concentration (MIC)
Description: as §2, §3

## O=C(Nc1c(Cl)cncc1Cl)c1ccc(OC(F)F)c(OCC2CC2)c1 [Roflumilast, N-(3,5-dichloropyrid-4-yl)-3-cyclopropylmethoxy-4-difluoromethoxybenzamid-e]
Malassezia species
  antifungal activity against Malassezia species: provides antifungal activity against Malassezia species
Candida species
  antifungal activity against the tested Candida species: did not demonstrate antifungal activity
M. furfur (ATCC 14521); Time 0.5 days
  minimum inhibition concentration (MIC): NGO
M. furfur (ATCC 14521); Time 1 days
  minimum inhibition concentration (MIC): NGO
[1]; ATCC22019, 12 h, Time 0.5 days
  MIC: 1020 µg/mL (≈ 2540 µM)
[1]; ATCC22019, 24 h, Time 1 days
  MIC: 1020 µg/mL (≈ 2540 µM)
[1]; ATCC22019, 48 h, Time 2 days
  MIC: > 1020 µg/mL
[1]; ATCC22019, 72 h, Time 3 days
  MIC: > 1020 µg/mL
[1]; ATCC22019, 96 h, Time 4 days
  MIC: > 1020 µg/mL
[1]; ATCC22019, 120 h, Time 5 days
  MIC: > 1020 µg/mL
[1]; ATCC22019, 144 h, Time 6 days
  MIC: > 1020 µg/mL
[1]; ATCC22019, 168 h, Time 7 days
  MIC: > 1020 µg/mL
[2]; 48 h, Time 2 days
  MIC: 32 µg/mL (≈ 79.4 µM)
[2]; 72 h, Time 3 days
  MIC: 32 µg/mL (≈ 79.4 µM)
[2]; 96 h, Time 4 days
  MIC: 128 µg/mL (≈ 317 µM)
[2]; 120 h, Time 5 days
  MIC: 128 µg/mL (≈ 317 µM)
[2]; 144 h, Time 6 days
  MIC: 128 µg/mL (≈ 317 µM)
[2]; 168 h, Time 7 days
  MIC: 128 µg/mL (≈ 317 µM)
[2]; Time 0.5 days
  minimum inhibition concentration (MIC): NGO
[2]; Time 1 days
  minimum inhibition concentration (MIC): NGO
[3]; 48 h, Time 2 days
  MIC: 32 µg/mL (≈ 79.4 µM)
[3]; 72 h, Time 3 days
  MIC: 32 µg/mL (≈ 79.4 µM)
[3]; 96 h, Time 4 days
  MIC: 32 µg/mL (≈ 79.4 µM)
[3]; 120 h, Time 5 days
  MIC: 32 µg/mL (≈ 79.4 µM)
[3]; 144 h, Time 6 days
  MIC: 32 µg/mL (≈ 79.4 µM)
[3]; 168 h, Time 7 days
  MIC: 64 µg/mL (≈ 159 µM)
[3]; Time 0.5 days
  minimum inhibition concentration (MIC): NGO
[3]; Time 1 days
  minimum inhibition concentration (MIC): NGO
C. albicans (ATCC 90028); ATCC90028, 12 h, Time 0.5 days
  MIC: > 1020 µg/mL
C. albicans (ATCC 90028); ATCC90028, 24 h, Time 1 days
  MIC: > 1020 µg/mL
C. albicans (ATCC 90028); ATCC90028, 48 h, Time 2 days
  MIC: > 1020 µg/mL
C. albicans (ATCC 90028); ATCC90028, 72 h, Time 3 days
  MIC: > 1020 µg/mL
C. albicans (ATCC 90028); ATCC90028, 96 h, Time 4 days
  MIC: > 1020 µg/mL
C. albicans (ATCC 90028); ATCC90028, 120 h, Time 5 days
  MIC: > 1020 µg/mL
C. albicans (ATCC 90028); ATCC90028, 144 h, Time 6 days
  MIC: > 1020 µg/mL
C. albicans (ATCC 90028); ATCC90028, 168 h, Time 7 days
  MIC: > 1020 µg/mL
M. furfur (ATCC 44344); ATCC44344, 48 h, Time 2 days
  MIC: 64 µg/mL (≈ 159 µM)
M. furfur (ATCC 44344); ATCC44344, 72 h, Time 3 days
  MIC: 64 µg/mL (≈ 159 µM)
M. furfur (ATCC 44344); ATCC44344, 96 h, Time 4 days
  MIC: 64 µg/mL (≈ 159 µM)
M. furfur (ATCC 44344); ATCC44344, 120 h, Time 5 days
  MIC: 64 µg/mL (≈ 159 µM)
M. furfur (ATCC 44344); ATCC44344, 144 h, Time 6 days
  MIC: 64 µg/mL (≈ 159 µM)
M. furfur (ATCC 44344); ATCC44344, 168 h, Time 7 days
  MIC: 64 µg/mL (≈ 159 µM)
M. furfur (ATCC 44344); Time 0.5 days
  minimum inhibition concentration (MIC): NGO
M. furfur (ATCC 44344); Time 1 days
  minimum inhibition concentration (MIC): NGO
M. furfur (ATCC 12078); ATCC12078, 48 h, Time 2 days
  MIC: 128 µg/mL (≈ 317 µM)
M. furfur (ATCC 12078); ATCC12078, 72 h, Time 3 days
  MIC: 128 µg/mL (≈ 317 µM)
M. furfur (ATCC 12078); ATCC12078, 96 h, Time 4 days
  MIC: 128 µg/mL (≈ 317 µM)
M. furfur (ATCC 12078); ATCC12078, 120 h, Time 5 days
  MIC: 128 µg/mL (≈ 317 µM)
M. furfur (ATCC 12078); ATCC12078, 144 h, Time 6 days
  MIC: 128 µg/mL (≈ 317 µM)
M. furfur (ATCC 12078); ATCC12078, 168 h, Time 7 days
  MIC: 128 µg/mL (≈ 317 µM)
M. furfur (ATCC 12078); Time 0.5 days
  minimum inhibition concentration (MIC): NGO
M. furfur (ATCC 12078); Time 1 days
  minimum inhibition concentration (MIC): NGO
C. krusei (ATCC 6258); ATCC6258, 12 h, Time 0.5 days
  MIC: 128 µg/mL (≈ 317 µM)
C. krusei (ATCC 6258); ATCC6258, 24 h, Time 1 days
  MIC: 1020 µg/mL (≈ 2540 µM)
C. krusei (ATCC 6258); ATCC6258, 48 h, Time 2 days
  MIC: > 1020 µg/mL
C. krusei (ATCC 6258); ATCC6258, 72 h, Time 3 days
  MIC: > 1020 µg/mL
C. krusei (ATCC 6258); ATCC6258, 96 h, Time 4 days
  MIC: > 1020 µg/mL
C. krusei (ATCC 6258); ATCC6258, 120 h, Time 5 days
  MIC: > 1020 µg/mL
C. krusei (ATCC 6258); ATCC6258, 144 h, Time 6 days
  MIC: > 1020 µg/mL
C. krusei (ATCC 6258); ATCC6258, 168 h, Time 7 days
  MIC: > 1020 µg/mL
